# Data published in patent US10544106B2, “Certain chemical entities, compositions, and methods” (NeuPharma, Inc., priority 2016, dated 2020).
# Target: BTK (Homo sapiens (Human), UniProt Q06187)
# Experiment: Z'-LYTE kinase inhibition assay against BTK
# Type: biochemical
# Conditions: compound at 100 nM; ATP concentration at Km
# Description: Inhibitory activities of compounds against BTK, EGFR T790M, EGFR L858R, and EGFR L858R/T790M were measured using Z′-LYTE® Method from Life Technologies as briefly described in the following.
# Test Compounds are screened in 1% DMSO (final) in the well. For 10 point titrations, 3-fold serial dilutions are conducted from the starting concentration. All ATP Solutions are diluted to a 4× working concentration in Kinase Buffer (50 mM HEPES pH 7.5, 0.01% BRIJ-35, 10 mM MgCl2, 1 mM EGTA). Peptide/Kinase Mixtures are diluted to a 2× working concentration in the appropriate Kinase Buffers as described below. • (i) Peptide/Kinase Mixtures for measurement of EGFR (ErbB1) L858R: • The 2×EGFR (ErbB1) L858R/Tyr 04 mixture is prepared in 50 mM HEPES pH 7.5, 0.01% BRIJ-35, 10 mM MgCl2, 4 mM MnCl2. 1 mM EGTA, 2 mM DTT. The final 10 μL Kinase Reaction consists of 0.2-1.68 ng EGFR (ErbB1) L858R and 2 μM Tyr 04 in 50 mM HEPES pH 7.5, 0.01% BRIJ-35, 10 mM MgCl2, 2 mM MnCl2, 1 mM EGTA, 1 mM DTT. After the 1 hour Kinase Reaction incubation, 5 μL of a 1:64 dilution of Development Reagent B is added. • (ii) Peptide/Kinase Mixtures for measurement of EGFR (ErbB1) T790M: The 2×EGFR (ErbB1) T790M/Tyr 04 mixture is prepared in 50 mM HEPES pH 6.5, 0.01% BRIJ-35, 10 mM MgCl2, 1 mM EGTA, 0.02% NaN3. The final 10 μL Kinase Reaction consists of 3.9-30.2 ng EGFR (ErbB1) T790M and 2 μM Tyr 04 in 50 mM HEPES pH 7.0, 0.01% BRIJ-35, 10 mM MgCl2, 1 mM EGTA, 0.01% NaN3. After the 1 hour Kinase Reaction incubation, 5 μL of a 1:64 dilution of Development Reagent B is added. • (iii) Peptide/Kinase Mixtures for measurement of EGFR (ErbB1) L858R/T790M: The 2×EGFR (ErbB1) T790M L858R/Tyr 04 mixture is prepared in 50 mM HEPES pH 6.5, 0.01% BRIJ-35, 10 mM MgCl2, 1 mM EGTA, 0.02% NaN3. The final 10 μL Kinase Reaction consists of 0.38-4.22 ng EGFR (ErbB1) T790M L858R and 2 μM Tyr 04 in 50 mM HEPES pH 7.0, 0.01% BRIJ-35, 10 mM MgCl2, 1 mM EGTA, 0.01% NaN3. After the 1 hour Kinase Reaction incubation, 5 μL of a 1:64 dilution of Development Reagent B is added. • (iv) Peptide/Kinase Mixtures for measurement of BTK: The 2×BTK/Tyr 01 mixture is prepared in 50 mM HEPES pH 7.5, 0.010/BRIJ-35, 10 mM MgCl2, 1 mM EGTA. The final 10 μL Kinase Reaction consists of 1.04-10.4 ng BTK and 2 μM Tyr 01 in 50 mM HEPES pH 7.5, 0.01% BRIJ-35, 10 mM MgCl2, 1 mM EGTA. After the 1 hour Kinase Reaction incubation, 5 μL of a 1:256 dilution of Development Reagent B is added.
# Reaction starts by 30-second shaking of mixture consisting of 2.5 μL 4× test compound, 5 μL 2× kinase reaction mixture and 2.5 μL 4×ATP Solution on Bar-coded Corning, low volume NBS, black 384-well plate (Corning Cat. #3676). Then the mixture is incubated for 60-minute at room temperature for the kinase reaction, followed by addition of 5 μL of a 1:1024 dilution of development reagent A and 30-second plate shake. The mixture is then incubated for another 60-minute at room temperature for development reaction. Finally fluorescence is read by plate reader.
# The Z′-LYTE assay was carried out with ATP concentration at Km. The scale utilized in Tables 2-6 is as follows: ++ more than 50% inhibition and + less than 50% inhibition.
# To determine IC50 of a compound against a kinase, a series of concentrations of the compound were tested for the inhibition. IC50 was calculated by plotting the concentration of compound vs the percentage of inhibition in treated wells using GraphPad Prism 5. […] The scale utilized in Table 7 is as follows: ++ less than 100 nM and + greater than 100 nM.
# Sequence of BTK (Q06187 whole entry): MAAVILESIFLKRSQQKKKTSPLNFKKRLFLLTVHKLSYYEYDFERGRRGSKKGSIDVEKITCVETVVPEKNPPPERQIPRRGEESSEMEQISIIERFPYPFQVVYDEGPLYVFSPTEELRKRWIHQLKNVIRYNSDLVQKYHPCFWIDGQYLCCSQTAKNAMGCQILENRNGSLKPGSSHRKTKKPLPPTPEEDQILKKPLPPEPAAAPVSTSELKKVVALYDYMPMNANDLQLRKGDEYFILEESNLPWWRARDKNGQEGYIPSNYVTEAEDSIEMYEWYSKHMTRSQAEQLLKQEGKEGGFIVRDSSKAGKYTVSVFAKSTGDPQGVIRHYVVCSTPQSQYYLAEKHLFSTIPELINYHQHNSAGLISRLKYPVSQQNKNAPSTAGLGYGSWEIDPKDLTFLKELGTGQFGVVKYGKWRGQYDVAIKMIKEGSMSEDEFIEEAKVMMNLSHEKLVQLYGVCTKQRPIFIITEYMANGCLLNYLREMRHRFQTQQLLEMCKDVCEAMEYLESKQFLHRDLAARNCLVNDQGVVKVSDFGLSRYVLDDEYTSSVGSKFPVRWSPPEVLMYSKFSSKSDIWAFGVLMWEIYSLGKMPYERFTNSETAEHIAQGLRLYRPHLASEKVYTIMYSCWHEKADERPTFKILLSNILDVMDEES
row,Molecule,inhibition at 0.1 µM
1,"C=CC(=O)Nc1cccc(-c2cc(-c3ccc(Oc4cc(C5CC5)ccn4)cc3F)cc3cncnc23)c1 [C198, N-(3-(6-(4-((4-cyclopropylpyridin-2-yl)oxy)-2-fluorophenyl)quinazolin-8-yl)phenyl)acrylamide]",> 50%
2,"C=CC(=O)N1CCC(c2nc(-c3ccc(Oc4ncccc4C(F)(F)F)cc3)n3c(N)nccc23)C1 (stereo not drawn) [C218, 1-(3-(5-amino-3-(4-((3-(trifluoro-methyl)pyridin-2-yl)oxy)phenyl)imidazo[1,5-c]pyrimidin-1-yl)pyrrolidin-1-yl)prop-2-en-1-one]",> 50%
3,"C=CC(=O)Nc1cccc(-c2cc(-c3ccc(C(=O)Nc4cc(C)ccn4)cc3)cc3cnc(N)nc23)c1 [C036, 4-(8-(3-acrylamidophenyl)-2-aminoquinazolin-6-yl)-N-(4-methylpyridin-2-yl)benzamide]",< 50%
4,C=CC(=O)Nc1cccc(-c2cc(-c3ccc(Oc4cc(C(F)(F)F)ccn4)cc3F)cc3cncnc23)c1 [C180],> 50%
5,"C=CC(=O)N1CCC(c2cc(-c3ccc(Oc4cc(C(F)(F)F)ccn4)cc3F)c(N)c3cncnc23)C1 (stereo not drawn) [C195, 1-(3-(5-amino-6-(2-fluoro-4-((4-(trifluoro-methyl)pyridin-2-yl)oxy)phenyl)quinazolin-8-yl)pyrrolidin-1-yl)prop-2-en-1-one]",< 50%
6,"CC#CC(=O)N1CCC(c2nc(-c3ccc(Oc4ccccn4)c(OC)c3)n3c(N)nccc23)C1 (stereo not drawn) [C213, 1-(3-(5-amino-3-(3-methoxy-4-(pyridin-2-yloxy)phenyl)imidazo[1,5-c]pyrimidin-1-yl)pyrrolidin-1-yl)but-2-yn-1-one]",> 50%
7,"C=CC(=O)N1CCC(c2nc(-c3ccc(Oc4ncccc4C#N)cc3)n3c(N)nccc23)C1 (stereo not drawn) [C227, 2-(4-(1-(1-acryloylpyrrolidin-3-yl)-5-amino-imidazo[1,5-c]pyrimidin-3-yl)phenoxy)nicotinonitrile]",> 50%
8,"C=CC(=O)Nc1cccc(-c2cc(-c3ccc(C(=O)Nc4cc(C#N)ccn4)cc3)cc3cncnc23)c1 [C109, 4-(8-(3-acrylamidophenyl)quinazolin-6-yl)-N-(4-cyanopyridin-2-yl)benzamide]",< 50%
9,"C=CC(=O)Nc1cccc(-c2cc(-c3ccc(C)nc3)cc3cncnc23)c1 [C010, N-(3-(6-(6-methylpyridin-3-yl)quinazolin-8-yl)phenyl)acrylamide]",> 50%
10,"C=CC(=O)N1CCC(c2cc(-c3ccc(C(=O)Nc4cc(C(N)=O)ccn4)cc3)cc3cncnc23)C1 (stereo not drawn) [C128, 2-(4-(8-(1-acryloylpyrrolidin-3-yl)quinazolin-6-yl)benzamido)isonicotinamide]",< 50%
11,"C=CC(=O)Nc1cccc(-c2cc(-c3ccc(Nc4cccc(C(F)(F)F)c4)cc3)cc3cncnc23)c1 [C019, N-(3-(6-(4-((3-(trifluoromethyl)phenyl)amino)phenyl)quinazolin-8-yl)phenyl)acrylamide]",< 50%

# More lines, now with the values ahead:
row,inhibition at 0.1 µM,Molecule
1,< 50%,"C=CC(=O)N1CCC(n2c(-c3ccccc3Cl)nc3cnc(N)nc32)C1 (stereo not drawn) [C026, 1-(3-(2-amino-8-(2-chlorophenyl)-9H-purin-9-yl)pyrrolidin-1-yl)prop-2-en-1-one]"
2,> 50%,"C=CC(=O)Nc1cccc(-c2cc(-c3ccc(C(=O)Nc4ccccc4)nc3)cc3cncnc23)c1 [C050, 5-(8-(3-acrylamidophenyl)quinazolin-6-yl)-N-phenylpicolinamide]"
3,< 50%,"C=CC(=O)N1CCC(c2cc(-c3ccc(Oc4cc(C(F)(F)F)ccn4)cc3F)cc3cncnc23)C1 (stereo not drawn) [C090, 1-(3-(6-(2-Fluoro-4-((4-(trifluoromethyl)pyridin-2-yl)oxy)phenyl)quinazolin-8-yl)pyrrolidin-1-yl)prop-2-en-1-one]"
4,> 50%,"CC#CC(=O)N1CCC(c2nc(-c3ccc(Oc4cc(C(F)(F)F)ccn4)c(F)c3)n3c(N)nccc23)C1 (stereo not drawn) [C207, 1-(3-(5-amino-3-(3-fluoro-4-((4-(trifluoro-methyl)pyridin-2-yl)oxy)phenyl)imidazo[1,5-c]pyrimidin-1-yl)pyrrolidin-1-yl)but-2-yn-1-one]"
5,< 50%,"C=CC(=O)Nc1cccc(-c2cc(-c3ccc(Oc4ccc(Cl)cc4)nc3)cc3cncnc23)c1 [C072, N-(3-(6-(6-(4-chlorophenoxy)pyridin-3-yl)quinazolin-8-yl)phenyl)acrylamide]"
6,< 50%,"C=CC(=O)N1CCCC(n2c(-c3ccccc3)nc3cncnc32)C1 (stereo not drawn) [C012, 1-(3-(8-phenyl-9H-purin-9-yl)piperidin-1-yl)prop-2-en-1-one]"
7,< 50%,"C=CC(=O)Nc1cccc(-c2cc(-c3ccc(C(=O)Nc4ccccn4)c(OC)c3)cc3cncnc23)c1 [C141, 4-(8-(3-acrylamidophenyl)quinazolin-6-yl)-2-methoxy-N-(pyridin-2-yl)benzamide]"
8,> 50%,"C=CC(=O)Nc1cccc(-c2cc(-c3cncc(OC)c3)cc3cnc(N)nc23)c1 [C110, N-(3-(2-amino-6-(5-methoxypyridin-3-yl)quinazolin-8-yl)phenyl)acrylamide]"
9,< 50%,"C=CC(=O)Nc1cccc(-c2cc(-c3ccc(C(=O)Nc4cc(C#N)ccn4)cc3)c(N)c3cncnc23)c1 [C176, 4-(8-(3-acrylamidophenyl)-5-aminoquinazolin-6-yl)-N-(4-cyanopyridin-2-yl)benzamide]"
10,> 50%,"C=CC(=O)Nc1cccc(-c2cc(-c3ccc(C(=O)Nc4ccccc4)cc3)cc3cncnc23)c1 [C053, 4-(8-(3-acrylamidophenyl)quinazolin-6-yl)-N-phenylbenzamide]"
11,> 50%,"C=CC(=O)N1CCC(c2cc(-c3ccc(Oc4ncccc4F)cc3F)cc3cncnc23)C1 (stereo not drawn) [C108, 1-(3-(6-(2-fluoro-4-((3-fluoropyridin-2-yl)oxy)phenyl)quinazolin-8-yl)pyrrolidin-1-yl)prop-2-en-1-one]"

# Same assay, conditions: series of concentrations; GraphPad Prism 5
row,Molecule,IC50
1,"C=CC(=O)Nc1cccc(-c2cc(-c3ccc(Oc4cc(C5CC5)ccn4)cc3F)cc3cncnc23)c1 [C198, N-(3-(6-(4-((4-cyclopropylpyridin-2-yl)oxy)-2-fluorophenyl)quinazolin-8-yl)phenyl)acrylamide]",< 100 nM
2,"CC#CC(=O)N1CCCC(c2nc(-c3ccc(Oc4ccccn4)cc3)n3c(N)nccc23)C1 (stereo not drawn) [C244, 1-(3-(5-amino-3-(4-(pyridin-2-yloxy)phenyl)imidazo[1,5-c]pyrimidin-1-yl)piperidin-1-yl)but-2-yn-1-one]",< 100 nM
3,"C=CC(=O)N1CCC(c2nc(-c3ccc(Oc4ncccc4C(F)(F)F)cc3)n3c(N)nccc23)C1 (stereo not drawn) [C218, 1-(3-(5-amino-3-(4-((3-(trifluoro-methyl)pyridin-2-yl)oxy)phenyl)imidazo[1,5-c]pyrimidin-1-yl)pyrrolidin-1-yl)prop-2-en-1-one]",< 100 nM
4,"C=CC(=O)N1CCC(c2cc(-c3ccc(Oc4cc(C(F)(F)F)ccn4)cc3F)c(N)c3cncnc23)C1 (stereo not drawn) [C195, 1-(3-(5-amino-6-(2-fluoro-4-((4-(trifluoro-methyl)pyridin-2-yl)oxy)phenyl)quinazolin-8-yl)pyrrolidin-1-yl)prop-2-en-1-one]",> 100 nM
5,"CC#CC(=O)N1CCC(c2nc(-c3ccc(C(=O)Nc4cc(C5CC5)ccn4)cc3)n3c(N)ncnc23)C1 (stereo not drawn) [C237, 4-(4-amino-8-(1-(but-2-ynoyl)pyrrolidin-3-yl)imidazo[1,5-a][1,3,5]triazin-6-yl)-N-(4-cyclopropylpyridin-2-yl)benzamide]",< 100 nM

# Now from value to molecule:
row,IC50,Molecule
1,< 100 nM,"4-(5-Amino-1-(1-(but-2-ynoyl)pyrrolidin-3-yl)imidazo[1,5-c]pyrimidin-3-yl)-N-(pyridin-2-yl)-3-(trifluoromethyl)benzamide [C248]"
2,< 100 nM,"C=CC(=O)N1CCCC(c2nc(-c3ccc(Oc4ncccc4F)c(OC)c3)n3c(N)nccc23)C1 (stereo not drawn) [C232, 1-(3-(5-amino-3-(4-((3-fluoropyridin-2-yl)oxy)-3-methoxyphenyl)imidazo[1,5-c]pyrimidin-1-yl)piperidin-1-yl)prop-2-en-1-one]"
3,< 100 nM,"C=CC(=O)Nc1cccc(-c2cc(-c3ccc(C(=O)Nc4ccccc4)cc3)cc3cncnc23)c1 [C053, 4-(8-(3-acrylamidophenyl)quinazolin-6-yl)-N-phenylbenzamide]"
